Experimental data taken from patent US20250213547A1, “METHODS OF TREATING NEUROLOGICAL DISEASES” (priority 2022, published 2025).
“And” between values parts separate entries of the source, which are not always exact repeats. Equal values may be shown once. Read-outs that look alike come from different tables or passages of the source.

Test: Healthy Japanese subjects, Part 2 (100, 200, 300 mg BID up-titration): PK of TAK-935 and M-I
Type: in vivo, human
Conditions: for AUlast/D (dose-normalized): mean (% CV); for AUC / Cmax / Tmax / Vd/F / AUC(0-t) / half-life: human, oral; for Vd/F: read-out: Vz/F; for half-life: read-out: t1/2z (terminal disposition phase half-life) (converted)
Method: This study consisted of 2 parts, and was a randomized, double-blind, placebo-controlled study to assess safety, tolerability, and PK and PD of TAK-935 when administered orally in healthy Japanese subjects.
TAK-935 or placebo was administered to the 9 subjects at the dose of 100 mg BID from Day 1 to Day 7, then 200 mg BID from Day 8 to Day 14, and finally 300 mg BID from Day 15 to Day 21, and safety, PK and PD were investigated. The planned dose levels of TAK-935 to be evaluated are outlined in Table 40a.
After the screening visit, eligible participants checked—in on Day-2. On Day 1, eligible participants were randomized 6:3 to TAK-935 or placebo in double-blinded fashion. No stratification variables were used for randomization. Study drug was administered every day by oral administration of multiple dosing with up-titration of TAK-935 to 9 subjects firstly at 100 mg BID from Day 1 to Day 7, then at 200 mg BID from Day 8 to Day 14, and finally at 300 mg BID from Day 15 to Day 21, successively. The subjects were discharged on Day 24. Intensive PK samplings were performed on Day 1, Day 7, Day 14 and Day 21.
Subjects received multiple oral doses of TAK-935 or placebo escalating from 100 mg BID, 200 mg BID, and then to 300 mg BID with 150 mL of water for 7 days per each dose level. For the morning dose, subjects were kept fasted for at least 8 hours before administration and up to 2 hours after administration. The evening dose was administered at any time between 8 hours and 12 hours after the morning dose, but prior to the evening meal except for Days 1, 7, 14, and 21. On Days 1, 7, 14, and 21, the evening dose was administered 12 hours after the morning dose and prior to the evening meal. • Identity of Study Drugs • Study drug refers to TAK-935 100 mg tablet and matching placebo. • Compound: Code name: TAK-935 • Dosage forms: TAK-935 100 mg tablets and matching placebo tablets were used in this study. The TAK-935 tablets and placebo tablets were yellow-red film-coated tablets for oral administration.
Blood samples for PK analysis of TAK-935 and its metabolites (M-I) were collected into blood collection tubes (vacutainer) containing the anticoagulant K2EDTA (Table 40e and Table 40f).
The PK parameters of TAK-935 and its metabolites (M-I) were determined from the concentration-time profiles for all evaluable subjects. Actual sampling times, rather than scheduled sampling times, were used in all computations involving sampling times. The following PK parameters were calculated from plasma concentrations of TAK-935 and its metabolites (M-I), unless otherwise specified: […]

[1] = Day 1 (100 mg BID), Part 2, Median
[2] = Day 1, TAK-935 100 mg BID, plasma, mean
[3] = Day 7 (100 mg BID), Part 2, Median
[4] = Day 7, TAK-935 100 mg BID, plasma, mean
[5] = Day 14 (200 mg BID), Part 2, Median
[6] = Day 14, TAK-935 200 mg BID, plasma, mean
[7] = Day 21 (300 mg BID), Part 2, Median
[8] = Day 21, TAK-935 300 mg BID, plasma, mean
[9] = plasma, 100 mg, Day 1, TAK-935 100 mg BID, plasma, mean
[10] = plasma, 100 mg, Day 7, TAK-935 100 mg BID, plasma, mean
[11] = plasma, 200 mg, Day 14, TAK-935 200 mg BID, plasma, mean
[12] = plasma, 300 mg, Day 21, TAK-935 300 mg BID, plasma, mean

SMILES: O=C(c1cccnc1-c1ccncc1)N1CCC(O)(Cc2ccccc2)CC1 [soticlestat]
- CL/F [1]: 501.5 L/H
- Lambda z [1]: 0.2135 h⁻¹
- T1/2z [1]: 196.5 min
- CL/F [2]: 451.8 L/h
- Lambda z [2]: 0.2042 h⁻¹
- CL/F [3]: 443.0 L/H
- Lambda z [3]: 0.2180 h⁻¹
- T1/2z [3]: 196.2 min
- CL/F [4]: 551.8 L/h
- Lambda z [4]: 0.2325 h⁻¹
- AUlast/D (dose-normalized) (Day 7, TAK-935 100 mg BID, plasma): 2.238 (49.3) h*ng/mL/mg
- CL/F [5]: 254.0 L/H
- Lambda z [5]: 0.2685 h⁻¹
- T1/2z [5]: 154.5 min
- CL/F [6]: 276.7 L/h and 276.4 L/h
- Lambda z [6]: 0.2775 h⁻¹
- AUlast/D (dose-normalized) (Day 14, TAK-935 200 mg BID, plasma): 4.298 (44.9) h*ng/mL/mg
- CL/F [7]: 147.0 L/H
- Lambda z [7]: 0.3095 h⁻¹
- T1/2z [7]: 134.4 min
- CL/F [8]: 158.0 L/h
- Lambda z [8]: 0.2708 h⁻¹
- AUlast/D (dose-normalized) (Day 21, TAK-935 300 mg BID, plasma): 6.725 (25.2) h*ng/mL/mg
- Mean t1/2z (TAK-935, Day 1, 100 mg BID): 359.3 min
- Mean t1/2z (TAK-935, Day 7, 100 mg BID): 217.8 min
- Mean t1/2z (TAK-935, Day 14, 200 mg BID): 157.2 min
- Mean t1/2z (TAK-935, Day 21, 300 mg BID): 175.6 min
- accumulation of Cmax and AUC (TAK-935, multiple dose administration): < 6%
- AUC (plasma, 100 mg, Day 1 (100 mg BID), Part 2, Geo Mean, read-out: AUC1ast): 209 ng·h/mL
- AUC (plasma, 100 mg, Day 1 (100 mg BID), Part 2, Geo Mean, read-out: AUCtau): 209 ng·h/mL
- Cmax (plasma, 100 mg, Day 1 (100 mg BID), Part 2, Geo Mean, read-out: Cmax): 201 ng/mL
- Tmax (plasma, 100 mg, Day 1 (100 mg BID), Part 2, Mean, read-out: Tmax): 52.5 min
- AUC (plasma, 100 mg, Day 1 (100 mg BID), Part 2, Median, read-out: AUC1ast): 160 ng·h/mL
- AUC (plasma, 100 mg, Day 1 (100 mg BID), Part 2, Median, read-out: AUCtau): 160 ng·h/mL
- Cmax (plasma, 100 mg, Day 1 (100 mg BID), Part 2, Median, read-out: Cmax): 146 ng/mL
- Vd/F (plasma, 100 mg, Day 1 (100 mg BID), Part 2, Median): 2450 L
- AUC(0-t) [9]: 232 ng·h/mL
- AUC (plasma, 100 mg, Day 1, TAK-935 100 mg BID, plasma, mean, read-out: AUCτ (AUC during a dosing interval)): 232 ng·h/mL
- Cmax (plasma, 100 mg, Day 1, TAK-935 100 mg BID, plasma, mean, read-out: Cmax): 255 ng/mL
- Vd/F [9]: 4100 L
- half-life [9]: 359 min
- Tmax (plasma, 100 mg, Day 1, TAK-935 100 mg BID, plasma, median, read-out: tmax): 45 min
- AUC (plasma, 100 mg, Day 7 (100 mg BID), Part 2, Geo Mean, read-out: AUC1ast): 201 ng·h/mL
- AUC (plasma, 100 mg, Day 7 (100 mg BID), Part 2, Geo Mean, read-out: AUCtau): 202 ng·h/mL
- Cmax (plasma, 100 mg, Day 7 (100 mg BID), Part 2, Geo Mean, read-out: Cmax): 146 ng/mL
- Tmax (plasma, 100 mg, Day 7 (100 mg BID), Part 2, Mean, read-out: Tmax): 50 min
- AUC (plasma, 100 mg, Day 7 (100 mg BID), Part 2, Median, read-out: AUC1ast): 226 ng·h/mL
- AUC (plasma, 100 mg, Day 7 (100 mg BID), Part 2, Median, read-out: AUCtau): 226 ng·h/mL
- Cmax (plasma, 100 mg, Day 7 (100 mg BID), Part 2, Median, read-out: Cmax): 148 ng/mL
- Vd/F (plasma, 100 mg, Day 7 (100 mg BID), Part 2, Median): 2600 L
- AUC(0-t) [10]: 224 ng·h/mL
- AUC (plasma, 100 mg, Day 7, TAK-935 100 mg BID, plasma, mean, read-out: AUCτ (AUC during a dosing interval)): 224 ng·h/mL
- Cmax (plasma, 100 mg, Day 7, TAK-935 100 mg BID, plasma, mean, read-out: Cmax): 204 ng/mL
- Vd/F [10]: 2940 L
- half-life [10]: 218 min
- Tmax (plasma, 100 mg, Day 7, TAK-935 100 mg BID, plasma, median, read-out: tmax): 30 min
- Tmax (plasma, 100 mg, TAK-935, Day 1, 100 mg BID, read-out: Median Tmax): 45 min
- AUC (plasma, 100 mg, TAK-935, Day 1, first dose 100 mg BID, read-out: Mean AUCτ): 232 ng·h/mL
- Cmax (plasma, 100 mg, TAK-935, Day 1, first dose 100 mg BID, read-out: mean Cmax): 255 ng/mL
- AUC (plasma, 100 mg, TAK-935, Day 7, 100 mg BID, read-out: Mean AUCτ): 224 ng·h/mL
- Cmax (plasma, 100 mg, TAK-935, Day 7, 100 mg BID, read-out: mean Cmax): 204 ng/mL
- AUC (plasma, 200 mg, Day 14 (200 mg BID), Part 2, Geo Mean, read-out: AUC1ast): 788 ng·h/mL
- AUC (plasma, 200 mg, Day 14 (200 mg BID), Part 2, Geo Mean, read-out: AUCtau): 789 ng·h/mL
- Cmax (plasma, 200 mg, Day 14 (200 mg BID), Part 2, Geo Mean, read-out: Cmax): 836 ng/mL
- Tmax (plasma, 200 mg, Day 14 (200 mg BID), Part 2, Mean, read-out: Tmax): 40 min
- AUC (plasma, 200 mg, Day 14 (200 mg BID), Part 2, Median, read-out: AUC1ast): 794 ng·h/mL
- AUC (plasma, 200 mg, Day 14 (200 mg BID), Part 2, Median, read-out: AUCtau): 794 ng·h/mL
- Cmax (plasma, 200 mg, Day 14 (200 mg BID), Part 2, Median, read-out: Cmax): 1030 ng/mL
- Vd/F (plasma, 200 mg, Day 14 (200 mg BID), Part 2, Median): 1030 L
- AUC(0-t) [11]: 860 ng·h/mL
- AUC (plasma, 200 mg, Day 14, TAK-935 200 mg BID, plasma, mean, read-out: AUCτ (AUC during a dosing interval)): 861 ng·h/mL
- Cmax (plasma, 200 mg, Day 14, TAK-935 200 mg BID, plasma, mean, read-out: Cmax): 980 ng/mL
- Vd/F [11]: 1090 L
- half-life [11]: 157 min
- Tmax (plasma, 200 mg, Day 14, TAK-935 200 mg BID, plasma, median, read-out: tmax): 30 min
- AUC (plasma, 200 mg, TAK-935, Day 14, 200 mg BID, read-out: Mean AUCτ): 861 ng·h/mL
- Cmax (plasma, 200 mg, TAK-935, Day 14, 200 mg BID, read-out: mean Cmax): 980 ng/mL
- AUC (plasma, 300 mg, Day 21 (300 mg BID), Part 2, Geo Mean, read-out: AUC1ast): 1960 ng·h/mL
- AUC (plasma, 300 mg, Day 21 (300 mg BID), Part 2, Geo Mean, read-out: AUCtau): 1960 ng·h/mL
- Cmax (plasma, 300 mg, Day 21 (300 mg BID), Part 2, Geo Mean, read-out: Cmax): 1940 ng/mL
- Tmax (plasma, 300 mg, Day 21 (300 mg BID), Part 2, Mean, read-out: Tmax): 32.5 min
- AUC (plasma, 300 mg, Day 21 (300 mg BID), Part 2, Median, read-out: AUC1ast): 2040 ng·h/mL
- AUC (plasma, 300 mg, Day 21 (300 mg BID), Part 2, Median, read-out: AUCtau): 2040 ng·h/mL
- Cmax (plasma, 300 mg, Day 21 (300 mg BID), Part 2, Median, read-out: Cmax): 1600 ng/mL
- Vd/F (plasma, 300 mg, Day 21 (300 mg BID), Part 2, Median): 620 L
- AUC(0-t) [12]: 2020 ng·h/mL
- AUC (plasma, 300 mg, Day 21, TAK-935 300 mg BID, plasma, mean, read-out: AUCτ (AUC during a dosing interval)): 2020 ng·h/mL
- Cmax (plasma, 300 mg, Day 21, TAK-935 300 mg BID, plasma, mean, read-out: Cmax): 2060 ng/mL
- Vd/F [12]: 640 L
- half-life [12]: 176 min
- Tmax (plasma, 300 mg, Day 21, TAK-935 300 mg BID, plasma, median, read-out: tmax): 30 min
- AUC (plasma, 300 mg, TAK-935, Day 21, 300 mg BID, read-out: Mean AUCτ): 2020 ng·h/mL
- Cmax (plasma, 300 mg, TAK-935, Day 21, 300 mg BID, read-out: mean Cmax): 2060 ng/mL
- Tmax (plasma, TAK-935, Day 7, Day 14 and Day 21, read-out: Median Tmax): 30 min
